{
  "source": "patent US10988786B2",
  "about": "“Mutant 4-hydroxyphenylacetate 3-hydroxylases and uses thereof” (SYMRISE AG, priority 2015, dated 2021)",
  "key": {"4HPA3H": {"target": "T1, 4HPA3H (Escherichia coli, UniProt Q57160)", "T1 construct": "expressed in transfected cells; host or cells: E. coli BL21(DE3)", "test": "Whole-cell hydroxylation, cells expressing wild-type 4HPA3H", "format": "cell-based, E. coli", "details": "BL21(DE3) cells expressing wild-type 4HPA3H"}, "[1]": {"target": "T2, 4HPA3H-Y301F/S462A (SEQ ID NO:175) (Escherichia coli, UniProt Q57160, S462A/Y301F)", "T2 construct": "made in house; host or cells: E. coli BL21(DE3)", "test": "Solid phase-based cascade (Talon column), hydroxylation of naringenin to eriodictyol", "format": "biochemical, E. coli", "experimental": "Stock solutions of […] and eriodictyol (10 mM each) in methanol were produced (for the structure of the compounds, see FIG. 9). They were diluted using acetonitrile for obtaining the desired concentrations (70, 110, 140, 210 and 280 μM). 10 μl of each sample was injected in to a HPLC machine and calibration curves were produced for both substances (data not shown).\nFirst the catalysis was performed using 9 mU oxidase 4HPA3H in a 10 ml reaction comprising 1 ml 1M Tris/HCl, pH 7.5; 25 μl of a 10 mM NADH solution, 20 μl of a 5 mM FAD solution and 1 ml formate solution using 9 mU 4HPA3H-Y301F/S462A (SEQ ID NO:175) and 0.57 mU PrnF-reductase (SEQ ID NO:176) and 640 mU FDH (SEQ ID NO:177). Subsequently the enzymes were mixes, 100 μl 1M Tris/HCl solution, pH 7.5, was added and ddH2O (deionized, reverse osmosis) was added ad 2 ml. The enzyme solution was at least 5 times passed through a 1 ml Talon column with a flow rate of 0.1 ml/min^−1 to let the proteins bind to the column in a homogenous way. The evaluation of the complete binding of the proteins to the column material was measured via Bradford assay. Then, the column was washed once with 50 mM Tris/HCl, pH 7.5 (=basis buffer), and connected to a peristaltic pump.\nThe constituents of each reaction mixture were transferred to a suitable sterile flask, which was then connected to a peristaltic pump. During reaction, the reaction mixture was slightly stirred with the help of a magnetic stirrer. Using a flow rate of 1 ml/min, the system was washed with the basis buffer for 2 min and a control sample was taken. Only then, the substrate was added, here 200 μM naringenin (from a 10 mM stock solution in methanol). The substrate was pumped over the Talon column having the enzymes bound thereto with a flow rate of 1 ml/min at maximum. During the time range from 0-1310 min, the sample extraction was performed in samples of 35 μl each. Said samples were mixed with an equal volume of acetonitrile and were immediately injected into a HPLC device (20 μl each). The evaluation was conducted with the help of a calibration curve done at the beginning of the experiment and thereby measuring and calculating the peak areas (see FIG. 10).\nThe same assay was performed using 35 mU hydroxylase/1 ml column volume and the concentration of the co-enzymes for regeneration of the cofactor was increased equivalently."}, "[2]": {"target": "two component non-P450 hydroxylase HpaBC (Escherichia coli, UniProt Q57160)", "details": "native wild-type HpaBC; proceeds incomplete; cited from earlier work"}},
  "data": [
    {"smiles": "O=C1C[C@@H](c2ccc(O)cc2)Oc2cc(O)cc(O)c21", "note": "[Compound 7, naringenin]", "values": [
      {"measurement": "acceptance as substrate", "setting": "4HPA3H", "value": "not accepted"},
      {"measurement": "remaining concentration of naringenin", "setting": "[1]; 9 mU enzyme/1 ml column, 200 μM naringenin, after 1290 min", "value": 29.3, "unit": "µM"},
      {"measurement": "remaining concentration of naringenin", "setting": "[1]; 35 mU hydroxylase/1 ml column volume, after 240 min", "value": 33.3, "unit": "µM"},
      {"measurement": "conversion of naringenin to eriodictyol", "setting": "[2]", "value": "< 10", "unit": "%"}
    ]}
  ]
}
